Data: PubChem BioAssay AID540345 (The Scripps Research Institute Molecular Screening Center, 2011)
Calls of active or inactive are those of the source. No rule for the calls is given here.

Key:
Assay in all cases: selectivity profile over receptors, transporters, CYPs – biochemical, Ricerca HitProfilingScreen, CYP450, set 2, selectivity assay for GPR7 antagonist project, profiling panel (AID 540345)
[1] = biological target: 5-hydroxytryptamine receptor 2B (Homo sapiens) (UniProt P41595); settings: Ricerca radioligand binding/CYP panel; Serotonin (5-Hydroxytryptamine) 5-HT2B; at 10 µM; active compounds read high
Adenosine A1 = settings: Ricerca radioligand binding/CYP panel, at 10 µM, active compounds read high
Adenosine A2A = settings: Ricerca radioligand binding/CYP panel, at 10 µM, active compounds read high
Adrenergic alpha1A = settings: Ricerca radioligand binding/CYP panel, at 10 µM, active compounds read high
Adrenergic alpha1B = settings: Ricerca radioligand binding/CYP panel, at 10 µM, active compounds read high
Adrenergic beta1 = settings: Ricerca radioligand binding/CYP panel, at 10 µM, active compounds read high
[2] = biological target: Alpha-2A adrenergic receptor (Homo sapiens) (UniProt P08913); settings: Ricerca radioligand binding/CYP panel; Adrenergic alpha2A; at 10 µM; active compounds read high
[3] = test system: Alpha-2A adrenergic receptor (Homo sapiens) + Histamine H1 receptor (Homo sapiens) + Mu-type opioid receptor (Homo sapiens); settings: Ricerca radioligand binding/CYP panel; at 10 µM; active compounds read high
[4] = biological target: Beta-2 adrenergic receptor (Homo sapiens) (UniProt P07550); settings: Ricerca radioligand binding/CYP panel; Adrenergic beta2; at 10 µM; active compounds read high
CYP450 2C19 = settings: Ricerca radioligand binding/CYP panel, at 10 µM, active compounds read high
Calcium Channel L-Type = settings: Ricerca radioligand binding/CYP panel, Dihydropyridine site, at 10 µM, active compounds read high
Cannabinoid CB1 = settings: Ricerca radioligand binding/CYP panel, at 10 µM, active compounds read high
[5] = biological target: Cytochrome P450 1A2 (Homo sapiens) (UniProt P05177); settings: Ricerca radioligand binding/CYP panel; CYP450 1A2; at 10 µM; active compounds read high
[6] = biological target: Cytochrome P450 2C9 (Homo sapiens) (UniProt P11712); settings: Ricerca radioligand binding/CYP panel; CYP450 2C9; at 10 µM; active compounds read high
[7] = biological target: Cytochrome P450 2D6 (Homo sapiens) (UniProt P10635); settings: Ricerca radioligand binding/CYP panel; CYP450 2D6; at 10 µM; active compounds read high
[8] = biological target: Cytochrome P450 3A4 (Homo sapiens) (UniProt P08684); settings: Ricerca radioligand binding/CYP panel; CYP450 3A4; at 10 µM; active compounds read high
[9] = biological target: D(1A) dopamine receptor (Homo sapiens) (UniProt P21728); settings: Ricerca radioligand binding/CYP panel; Dopamine D1; at 10 µM; active compounds read high
Dopamine D2S = settings: Ricerca radioligand binding/CYP panel, at 10 µM, active compounds read high
GABAA = settings: Ricerca radioligand binding/CYP panel, central, at 10 µM, active compounds read high
Glutamate NMDA = settings: Ricerca radioligand binding/CYP panel, Phencyclidine site, at 10 µM, active compounds read high
Histamine H1 = settings: Ricerca radioligand binding/CYP panel, at 10 µM, active compounds read high
[10] = biological target: Muscarinic acetylcholine receptor M2 (Homo sapiens) (UniProt P08172); settings: Ricerca radioligand binding/CYP panel, at 10 µM, active compounds read high
[11] = biological target: Muscarinic acetylcholine receptor M3 (Homo sapiens) (UniProt P20309); settings: Ricerca radioligand binding/CYP panel, at 10 µM, active compounds read high
Nicotinic Acetylcholine = settings: Ricerca radioligand binding/CYP panel, at 10 µM, active compounds read high
Opiate mu (OP3, MOP) = settings: Ricerca radioligand binding/CYP panel, at 10 µM, active compounds read high
Prostanoid EP4 = settings: Ricerca radioligand binding/CYP panel, at 10 µM, active compounds read high
Sigma 1 = settings: Ricerca radioligand binding/CYP panel, at 10 µM, active compounds read high
Sodium Channel = settings: Ricerca radioligand binding/CYP panel, Site 2, at 10 µM, active compounds read high
[12] = test system: Transporter Norepinephrine (NET); settings: Ricerca radioligand binding/CYP panel, at 10 µM, active compounds read high
[13] = biological target: Voltage-gated inwardly rectifying potassium channel KCNH2 (Homo sapiens) (UniProt Q12809); settings: Ricerca radioligand binding/CYP panel; Potassium Channel hERG; at 10 µM; active compounds read high

Measured: inhibition

Cytochrome P450 3A4 (Homo sapiens), sequence (P08684 whole entry, looked up): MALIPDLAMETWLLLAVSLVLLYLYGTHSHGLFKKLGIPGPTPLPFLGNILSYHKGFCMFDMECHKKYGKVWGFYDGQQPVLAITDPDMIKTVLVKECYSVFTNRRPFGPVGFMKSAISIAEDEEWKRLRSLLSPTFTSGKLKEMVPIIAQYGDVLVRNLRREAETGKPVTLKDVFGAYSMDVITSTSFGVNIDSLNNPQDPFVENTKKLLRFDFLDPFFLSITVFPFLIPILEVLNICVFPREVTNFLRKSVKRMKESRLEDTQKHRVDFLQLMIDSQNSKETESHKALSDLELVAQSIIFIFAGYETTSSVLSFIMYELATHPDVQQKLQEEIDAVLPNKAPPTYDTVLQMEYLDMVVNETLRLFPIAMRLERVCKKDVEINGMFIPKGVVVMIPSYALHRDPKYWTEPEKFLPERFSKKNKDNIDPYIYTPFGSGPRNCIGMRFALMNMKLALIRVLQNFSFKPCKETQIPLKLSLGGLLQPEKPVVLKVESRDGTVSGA
Beta-2 adrenergic receptor (Homo sapiens), sequence (P07550 whole entry, looked up): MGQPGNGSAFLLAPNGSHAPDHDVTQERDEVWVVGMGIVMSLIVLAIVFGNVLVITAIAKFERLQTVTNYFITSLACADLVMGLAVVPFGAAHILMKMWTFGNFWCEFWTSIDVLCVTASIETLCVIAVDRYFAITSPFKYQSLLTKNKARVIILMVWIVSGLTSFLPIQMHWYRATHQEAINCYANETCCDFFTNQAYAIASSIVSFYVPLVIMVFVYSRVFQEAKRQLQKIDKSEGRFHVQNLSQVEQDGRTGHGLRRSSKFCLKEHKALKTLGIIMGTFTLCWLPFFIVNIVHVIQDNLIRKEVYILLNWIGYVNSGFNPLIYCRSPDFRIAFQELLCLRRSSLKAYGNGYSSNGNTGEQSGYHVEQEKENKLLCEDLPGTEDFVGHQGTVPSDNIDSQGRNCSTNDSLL
Muscarinic acetylcholine receptor M2 (Homo sapiens), sequence (P08172 whole entry, looked up): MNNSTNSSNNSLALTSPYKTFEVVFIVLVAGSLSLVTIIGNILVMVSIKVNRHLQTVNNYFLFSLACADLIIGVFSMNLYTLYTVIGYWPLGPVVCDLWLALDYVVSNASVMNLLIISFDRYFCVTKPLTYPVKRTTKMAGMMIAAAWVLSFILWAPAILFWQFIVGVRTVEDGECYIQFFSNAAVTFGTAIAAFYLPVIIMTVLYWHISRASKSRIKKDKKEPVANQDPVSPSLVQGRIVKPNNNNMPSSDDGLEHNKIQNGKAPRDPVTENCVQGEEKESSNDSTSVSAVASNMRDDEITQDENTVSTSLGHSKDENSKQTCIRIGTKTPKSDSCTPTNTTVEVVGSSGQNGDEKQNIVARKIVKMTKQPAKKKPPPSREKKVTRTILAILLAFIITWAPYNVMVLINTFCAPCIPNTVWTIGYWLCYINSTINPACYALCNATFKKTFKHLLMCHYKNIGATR
D(1A) dopamine receptor (Homo sapiens), sequence (P21728 whole entry, looked up): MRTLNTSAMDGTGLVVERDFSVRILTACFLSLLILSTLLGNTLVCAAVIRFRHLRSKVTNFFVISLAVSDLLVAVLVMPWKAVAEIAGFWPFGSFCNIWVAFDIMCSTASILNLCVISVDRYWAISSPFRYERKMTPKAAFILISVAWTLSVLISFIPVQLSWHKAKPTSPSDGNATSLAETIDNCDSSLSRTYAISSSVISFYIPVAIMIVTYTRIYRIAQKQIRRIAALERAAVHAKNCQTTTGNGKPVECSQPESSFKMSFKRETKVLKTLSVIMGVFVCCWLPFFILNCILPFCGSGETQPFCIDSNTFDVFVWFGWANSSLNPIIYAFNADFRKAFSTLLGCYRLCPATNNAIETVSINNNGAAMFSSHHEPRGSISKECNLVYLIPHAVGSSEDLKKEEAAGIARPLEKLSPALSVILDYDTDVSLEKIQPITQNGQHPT
Muscarinic acetylcholine receptor M3 (Homo sapiens), sequence (P20309 whole entry, looked up): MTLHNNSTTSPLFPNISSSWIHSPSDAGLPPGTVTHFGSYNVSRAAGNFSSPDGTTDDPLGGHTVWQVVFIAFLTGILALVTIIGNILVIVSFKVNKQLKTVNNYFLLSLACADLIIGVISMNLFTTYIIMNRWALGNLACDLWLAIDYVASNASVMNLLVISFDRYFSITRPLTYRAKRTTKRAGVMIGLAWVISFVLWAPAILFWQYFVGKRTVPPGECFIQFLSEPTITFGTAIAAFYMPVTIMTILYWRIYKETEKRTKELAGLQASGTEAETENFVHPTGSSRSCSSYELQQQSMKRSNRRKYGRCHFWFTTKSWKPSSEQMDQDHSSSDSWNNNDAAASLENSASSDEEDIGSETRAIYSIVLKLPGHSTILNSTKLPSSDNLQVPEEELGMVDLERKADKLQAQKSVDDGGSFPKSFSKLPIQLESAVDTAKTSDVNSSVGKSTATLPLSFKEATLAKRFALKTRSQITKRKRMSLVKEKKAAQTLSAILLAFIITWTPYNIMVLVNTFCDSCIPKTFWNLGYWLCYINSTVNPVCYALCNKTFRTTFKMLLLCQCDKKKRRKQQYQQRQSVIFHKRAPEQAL
Cytochrome P450 2D6 (Homo sapiens), sequence (P10635 whole entry, looked up): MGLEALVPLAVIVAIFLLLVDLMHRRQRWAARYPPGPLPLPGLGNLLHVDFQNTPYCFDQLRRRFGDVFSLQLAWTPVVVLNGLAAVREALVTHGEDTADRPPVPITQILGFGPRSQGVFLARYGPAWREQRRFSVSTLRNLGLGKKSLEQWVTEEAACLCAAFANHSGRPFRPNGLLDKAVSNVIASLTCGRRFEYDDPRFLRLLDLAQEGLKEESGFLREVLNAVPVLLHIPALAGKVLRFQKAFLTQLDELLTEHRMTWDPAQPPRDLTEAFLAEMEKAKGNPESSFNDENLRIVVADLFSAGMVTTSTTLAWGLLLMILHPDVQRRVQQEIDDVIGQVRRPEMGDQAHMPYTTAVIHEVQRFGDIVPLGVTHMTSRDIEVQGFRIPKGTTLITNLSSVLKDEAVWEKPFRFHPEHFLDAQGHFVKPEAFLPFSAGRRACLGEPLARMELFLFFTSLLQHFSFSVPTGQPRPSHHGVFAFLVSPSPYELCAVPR
Alpha-2A adrenergic receptor (Homo sapiens), sequence (P08913 whole entry, looked up): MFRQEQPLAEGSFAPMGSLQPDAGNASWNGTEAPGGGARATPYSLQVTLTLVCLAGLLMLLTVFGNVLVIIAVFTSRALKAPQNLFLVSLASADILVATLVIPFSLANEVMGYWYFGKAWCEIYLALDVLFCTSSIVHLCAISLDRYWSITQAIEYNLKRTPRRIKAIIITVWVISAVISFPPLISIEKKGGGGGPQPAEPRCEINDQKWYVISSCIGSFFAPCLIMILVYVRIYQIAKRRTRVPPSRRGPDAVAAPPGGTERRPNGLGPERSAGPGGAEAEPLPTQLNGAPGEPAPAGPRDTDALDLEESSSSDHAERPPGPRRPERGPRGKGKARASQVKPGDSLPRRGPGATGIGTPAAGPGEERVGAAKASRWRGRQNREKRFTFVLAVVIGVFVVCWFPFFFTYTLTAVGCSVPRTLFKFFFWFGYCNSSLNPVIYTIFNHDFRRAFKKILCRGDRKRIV
5-hydroxytryptamine receptor 2B (Homo sapiens), sequence (P41595 whole entry, looked up): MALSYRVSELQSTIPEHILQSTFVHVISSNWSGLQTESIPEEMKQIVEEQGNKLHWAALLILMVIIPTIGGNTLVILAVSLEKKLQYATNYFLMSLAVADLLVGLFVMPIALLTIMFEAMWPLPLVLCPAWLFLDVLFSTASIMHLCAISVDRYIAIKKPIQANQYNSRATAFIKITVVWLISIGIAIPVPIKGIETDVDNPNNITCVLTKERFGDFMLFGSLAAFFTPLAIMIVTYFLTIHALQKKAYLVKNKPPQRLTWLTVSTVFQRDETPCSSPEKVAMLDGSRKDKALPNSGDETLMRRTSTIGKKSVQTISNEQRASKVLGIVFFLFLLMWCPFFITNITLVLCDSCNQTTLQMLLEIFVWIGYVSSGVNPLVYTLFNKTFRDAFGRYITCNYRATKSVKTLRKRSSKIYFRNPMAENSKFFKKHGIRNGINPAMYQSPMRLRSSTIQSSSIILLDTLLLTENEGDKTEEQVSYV
Cytochrome P450 2C9 (Homo sapiens), sequence (P11712 whole entry, looked up): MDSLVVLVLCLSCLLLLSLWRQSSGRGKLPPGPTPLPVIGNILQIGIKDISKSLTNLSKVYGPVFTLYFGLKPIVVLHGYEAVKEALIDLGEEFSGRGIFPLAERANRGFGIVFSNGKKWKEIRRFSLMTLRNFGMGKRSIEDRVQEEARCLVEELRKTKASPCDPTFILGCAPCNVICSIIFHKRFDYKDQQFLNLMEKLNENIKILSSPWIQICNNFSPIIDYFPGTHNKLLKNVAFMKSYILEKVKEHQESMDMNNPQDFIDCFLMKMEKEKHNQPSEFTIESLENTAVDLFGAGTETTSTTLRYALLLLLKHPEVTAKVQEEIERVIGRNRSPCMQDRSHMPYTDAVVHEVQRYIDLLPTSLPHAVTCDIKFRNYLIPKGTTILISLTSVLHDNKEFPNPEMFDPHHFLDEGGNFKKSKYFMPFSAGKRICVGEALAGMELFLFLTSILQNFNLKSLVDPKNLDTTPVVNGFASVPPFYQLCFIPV
Cytochrome P450 1A2 (Homo sapiens), sequence (P05177 whole entry, looked up): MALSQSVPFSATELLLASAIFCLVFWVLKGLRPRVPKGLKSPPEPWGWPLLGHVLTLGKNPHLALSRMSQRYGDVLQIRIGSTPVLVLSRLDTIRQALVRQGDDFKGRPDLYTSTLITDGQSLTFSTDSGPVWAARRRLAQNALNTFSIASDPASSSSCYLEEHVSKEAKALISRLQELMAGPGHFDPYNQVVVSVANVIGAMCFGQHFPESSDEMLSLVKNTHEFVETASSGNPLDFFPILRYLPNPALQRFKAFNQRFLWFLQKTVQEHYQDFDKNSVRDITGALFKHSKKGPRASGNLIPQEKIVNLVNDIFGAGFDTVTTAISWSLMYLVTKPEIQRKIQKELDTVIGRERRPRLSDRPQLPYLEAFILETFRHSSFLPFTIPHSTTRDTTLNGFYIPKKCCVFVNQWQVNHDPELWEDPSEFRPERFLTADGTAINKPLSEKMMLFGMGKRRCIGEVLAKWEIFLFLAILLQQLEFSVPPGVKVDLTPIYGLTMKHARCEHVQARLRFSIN

COc1ccc(Oc2c(Cl)cnn(C3c4ccccc4-c4ccccc43)c2=O)cc1
active: [1] 63% | CYP450 2C19 51% | [5] 67%
inactive: Adenosine A1 7% | Adenosine A2A 15% | Adrenergic alpha1A -1% | Adrenergic alpha1B 8% | Adrenergic beta1 7% | [2] 5% | [3] 8% | [4] 4% | Calcium Channel L-Type 33% | Cannabinoid CB1 9% | [6] 13% | [7] 2% | [8] 26% | [9] 14% | Dopamine D2S -1% | GABAA; Flunitrazepam site 0% | GABAA; Muscimol site 7% | Glutamate NMDA -18% | Histamine H1 17% | [10] -2% | [11] -1% | Nicotinic Acetylcholine -16% | Opiate mu (OP3, MOP) 1% | Prostanoid EP4 5% | Sigma 1 6% | Sodium Channel 36% | [12] 42% | [13] 28%
